Source: a melting point compilation (Tetko et al.; mined from patent text by program, amines drawn as free bases though some values may be those of a salt)

SMILES	melting point
Cn1cc(C(=O)NCc2ccc(Cl)cc2)c(=O)c2cc(CN3CCOCC3)cc(C#CCN3CCC(O)C3)c21 (stereo unspecified)	144 to 146 °C
CCCC(=O)NS(=O)(=O)c1ccc(NC(=O)N2CCc3c(OC)ccc(N4CCN(C)CC4)c3C2)cc1	185 to 190 °C
CCCc1nc(CC)c(C(=O)O)n1Cc1ccc(C2(C(=O)O)CC=CC2)s1	157 to 161 °C
CN(Cc1cc(C(F)(F)F)cc(C(F)(F)F)c1)C(=O)c1nc(Cl)c2ccccc2c1-c1ccc(F)cc1	142 to 143 °C
CC1(C)Oc2ccc(C(N)=O)cc2C(c2cccn(Cc3ccccc3)c2=O)C1O (stereo unspecified)	230 to 235 °C
CC1(C)COC(=O)N1c1nc(-c2cccc([N+](=O)[O-])c2)cs1	> 210 °C
CC(C)(C)C(=O)C(Br)C(c1ccc(Cl)cc1Cl)S(=O)(=O)c1ccccc1 (stereo unspecified)	135 to 136 °C
Cc1c(F)cc(C(C)(C)C)c(O)c1-c1nc2ccc(F)cc2c(=O)[nH]1	247 to 248 °C
Cc1ccc(-c2nc(O)cc(O)n2)cc1	314 °C
COC(=O)c1cc(O)c(O)c(OC)c1	110 to 111 °C
CNc1cccc(OC)c1[N+](=O)[O-]	58 to 59 °C
O=C(O)CCNC(=O)C1CN(c2ccc(-c3noc(=O)[nH]3)cc2)C(=O)O1 (stereo unspecified)	221 to 223 °C
O=C1C=CC(=O)c2cc(C(F)(F)F)c(C(F)(F)F)cc21	91 to 94 °C
CCCc1c(OCCCCCc2ccc(OC)c(OC)c2)ccc(C(C)=O)c1O	72 to 75 °C
O=C(O)c1cnn(-c2nc(-c3cc(C(F)(F)F)cc(C(F)(F)F)c3)cs2)c1C(F)(F)F	204 to 205 °C
CCOc1c(C)cccc1-c1nc2ccc(C(=O)O)cc2c(=O)[nH]1	240 to 241 °C
OCCNCc1nnc2n1-c1ccc(Cl)cc1C(c1ccccc1)=NC2	162 to 164 °C
Cc1oc2c(C)c(C)c(NCc3ccc(F)cc3)c(C)c2c1-c1ccc(F)cc1	107 to 109 °C
CNC(=S)C1(c2cccnc2)CCCCC1=CCOc1ccc([N+](=O)[O-])cc1 (stereo unspecified)	201 to 202 °C
O=C1C(=O)c2ccc(-c3cccc(C(F)(F)F)c3)cc2C2=C1SCC1(CCNCC1)O2	199 to 203 °C
O=C1CC(C(F)(F)F)CC(=O)N1c1cc(O)c(Cl)cc1F	112 to 114 °C
c1ccc2c(c1)cc1cnc(Nc3ccc(N4CCOCC4)cc3)nn12	205 to 210 °C
O=C(O)C(=O)c1cn(Cc2ccc(F)cc2)c2ccc(OCCc3ccc(F)cc3)cc12	171 to 173 °C
CCCc1ncc(CCCCC(=O)O)s1	124 °C
CCn1cc(-c2cccc(C(F)(F)F)c2)c(=O)c(-c2cccc(C(F)(F)F)c2)c1	185 °C
Nc1cccc(-c2ccc(CCN3CCN(c4nnnn4-c4ccc(F)cc4)CC3)cc2)n1	185 to 187 °C

SMILES	melting point
CCOC(=O)c1nc2ccc(CO)cc2n1OC	110 °C
CC(C)(C)NC(=O)NC1=CC(=O)CCC1	223 to 225 °C
COc1ccccc1N1CCN(CC(O)CCN2C(=O)c3ccccc3C2=O)CC1 (stereo unspecified)	192 to 194 °C
CSCC(O)COc1cccc2oc(C(=O)O)cc(=O)c12 (stereo unspecified)	76 to 79 °C
O=Cc1c(Br)n(C2OC(CO)C(O)C2O)c2cc(Cl)c(Cl)cc12 (stereo unspecified)	210 to 211 °C
CCOC(=O)c1c2n(c3c(Cl)c(F)c(F)cc3c1=O)C(C)S2 (stereo unspecified)	191 to 194 °C
CCCCCc1nc(NC(=N)N)sc1-c1cccc([N+](=O)[O-])c1	135 to 137 °C
CNC1=NN(c2cccc(C(F)(F)F)c2)CC1	93.1 °C
Nc1ccc([N+](=O)[O-])cc1S(=O)(=O)N1CCOCC1	204 to 206 °C
O=[N+]([O-])c1cc2c(cc1C=Cc1ccccn1)OCO2	167 to 170 °C
O=S(=O)(c1ccccc1)c1c[nH]c2ncccc12	> 250 °C
CCC(=O)NC1CCc2c([nH]c3ccccc23)C1 (stereo unspecified)	169 to 170 °C
CN(CC(=O)O)C(=S)c1cc(-c2ccccc2)nc2ccccc12	228 to 230 °C
COC(=O)CCc1cc2cc(Cl)ccc2n1S(=O)(=O)c1ccc(C(C)=O)cc1	83 to 87 °C
O=C1CCC2(CCC(=O)N2c2ccc(Cc3ccc(N4C(=O)CCC45CCC(=O)O5)cc3)cc2)O1 (stereo unspecified)	135 °C
FC(F)(F)Sc1[nH]ccc1-c1ccc(Cl)cc1	44 to 46 °C
CS(=O)(=O)N1CCSc2cccc(F)c2C1	115 to 117 °C
CSc1c(NC(C)=O)cnc2ccccc12	137 to 138 °C
CC/C(=C(/c1ccc(O)cc1)c1ccc(OCCN(C)C)cc1)c1ccc(C(C)C)cc1	95 to 96 °C
CCCCCCCCCCCC(=O)Oc1c(C(=O)c2ccc(Cl)cc2Cl)c(C)nn1C	56 °C
N=C(N)CSc1nnc(S)s1	184 to 187 °C
COc1ccc(C(=O)Nc2ccc(Cl)c(Cl)c2)cc1Nc1cccc(C(F)(F)F)c1	154 to 155 °C
CC(N)=CC(=O)c1cccnc1	82 °C
COC(=O)c1sc2cncc(Oc3ccc(Cl)cc3)c2c1N	194 to 196 °C
CCN(C)c1cc(F)cc(C(=O)Nc2ccc(OCCN3CCOCC3)c3ccccc23)c1	126 to 128 °C
COC(=O)C1(NC(=O)C2(Br)SC=C(Br)C2Br)CCCCCC1 (stereo unspecified)	165 to 168 °C

SMILES	melting point
C=CCOC(=O)NCC(=N)NO	91 to 92 °C
O=c1cc(C2CCCCC2)oc2ccc(OCCCCCN3CCC(O)CC3)cc12	85 to 86 °C
Cn1cc(C(N)=O)c(=O)c2sc(-c3ccccc3)cc21	266 to 268 °C
COc1ccc(C2=NN(C3CCN(S(C)(=O)=O)CC3)C(=O)CC2)cc1OC	164 to 166 °C
Cc1nnc2n1-c1ccc(C#C[Si](C)(C)C)cc1C(c1ccccc1)=NC2	229 to 233 °C
CCCCn1nc(SCCCCCC(=O)O)c(C(=O)O)c1Cc1cc2c(cc1Cl)OCO2	70 °C
CCOC(=O)Cn1c(C)c(-c2ccnc3cc(Cl)ccc23)c2cc(NC(C)=O)ccc21	281 to 284 °C
O=C(Nc1nnn[nH]1)c1cc(Cl)ccc1[N+](=O)[O-]	268 to 269 °C
CC(C)CCC1CCCCc2c1oc(=O)c(C(c1ccccc1)C1CC1)c2O (stereo unspecified)	67 to 77 °C
CCOC(=O)c1[nH]c2cc(Cl)cc(Cl)c2c1NCCCC(=O)c1ccccc1	203 to 205 °C
C=C(C(=O)Nc1ccc(CCc2nnco2)cc1)c1cnn(C)c1-c1ccc(F)cc1	177 to 178 °C
CSc1ccc(CCN2CCN(C(=O)c3ccc(N(CCOC(C)C)C(=O)CCl)cc3)CC2)cc1	115 to 116 °C
CN(C)NC(=O)Nc1cccc2c1C(=O)c1c-2n[nH]c1-c1ccc(N2CCNCC2)cc1	238 °C
CCOC(=O)CN1C(=O)C(N=[N+]=[N-])CCc2ccc(OC)cc21 (stereo unspecified)	90 to 91 °C
CC(C)c1ccccc1NC(=O)c1ccccc1C(c1ccc(O)cc1)c1ccc(O)cc1	225 to 227 °C
CCCCCCC(C)(C)c1cc(OC)c(C2=C[C@@]3(C)CC[C@@H]2C3(C)C)c(OC)c1	32 to 33 °C
CC(C)(C)NC(=O)/C=C/c1ccc(C(=O)c2c(-c3ccc(O)cc3)sc3cc(O)ccc23)cc1	187 to 190 °C
N#Cc1cccc2c(C3CCCCC3)nccc12	94.7 °C
CC1(COc2ccc(CP(=O)(O)O)cc2)CCCCC1	170 to 172 °C
OC(Cn1cncn1)(c1ccc(Cl)cc1)C(Cl)(Cl)C(Cl)Cl (stereo unspecified)	168 to 169 °C
Cc1cc(C)n(-c2nc(Nc3ccccc3)c3ccccc3n2)n1	262 to 265 °C
CC(=O)Nc1cccc(-c2csc3nc(C45CC6CC(CC(C6)C4)C5)cn23)c1	98 to 100 °C
CS(=O)C1=NS(=O)(=O)c2cc(Cl)ccc2N1 (stereo unspecified)	260 to 261 °C
NC(c1ccccc1)c1ccc(OCCCCOc2ccc(C(N)c3ccccc3)cc2)cc1 (stereo unspecified)	120 to 123 °C
O=C(NCc1cccs1)n1cc(F)c(=O)[nH]c1=O	131 to 132 °C
CC(O)CCCCCc1ccc(-c2ccccc2)cc1 (stereo unspecified)	47 to 48 °C

SMILES	melting point
Fc1cccc(-c2nc(-c3ccccn3)no2)c1F	120 to 121 °C
c1ccc2c(N3CCNCC3)n[nH]c2c1	139 to 150 °C
C=Cc1c(N)nc(-c2ccc(Cl)c(F)c2F)nc1C(=O)OC	130 to 132 °C
CC(C)N1CC(=O)C(C#N)=C1N	285 to 290 °C
CC(=O)N(C)c1c(I)c(N)c(I)c(C(=O)N(C)C)c1I	235 to 240 °C
Cn1nc(C(F)F)c(CS(=O)(=O)C2=NOC(C)(C)C2)c1Cl	78 to 79 °C
CN1CC(c2cccc(OCc3ccc4ccccc4n3)c2)OC1=O (stereo unspecified)	75 to 77 °C
C[C@]12CCC(=O)N[C@@H]1CCc1cc(Sc3cccc4ccccc34)ccc12	199 to 201 °C
C#CC(OC)Oc1cc(Cc2cnc(N)nc2N)cc(OC)c1OC (stereo unspecified)	153 to 155 °C
FC(F)(F)c1cc(-n2cncn2)c2cccc(C(F)(F)F)c2n1	106 to 107 °C
CC(=O)c1ccc(OCC(=O)NC2CCN(Cc3ccc(Cl)c(Cl)c3)CC2)cc1	113 °C
COc1cccc(C=Cc2nc3c(s2)N(S(C)(=O)=O)CCC3)c1OC	134 to 136 °C
CCN(CC)C(=O)Cc1c(-c2ccc(F)cc2)nc2c(C)cc(C)nn12	139 to 143 °C
CN(Cc1cccc2c1CN(C1CCC(=O)NC1=O)C2=O)C(=O)Nc1ccc(Cl)cc1 (stereo unspecified)	255 to 257 °C
O=Cc1ccc(CC(=O)OCc2ccccc2)cc1	54 to 55 °C
CCCCc1oc2ccccc2c1C(=O)NCc1ccc2c(-c3ccc(C(C)(C)C)cc3)c(O)ccc2c1	195 to 197 °C
O=S(c1ccccc1)C1O[C@H](COCc2ccccc2)[C@@H](OCc2ccccc2)[C@H](OCc2ccccc2)[C@H]1OCc1ccccc1 (stereo partly specified)	120 to 122 °C
O=C1CCC(c2ccc(OC(F)(F)F)cc2)N1 (stereo unspecified)	105 to 106 °C
Cn1c(=O)sc2cc(N3C[C@H](C(=O)NCCO)OC3=O)ccc21	217 to 219 °C
CCNc1ncnc2c1ncn2Cc1c(F)cccc1Cl	175 to 176 °C
CCCCCCCCCCCCCCCCCCOc1ccc(O)c(C(=O)OC)c1	53 to 54 °C
C=CCNC(=S)NC(=O)c1ccccc1	68 to 69 °C
CCc1cc(-c2[nH]c3ccccc3c2C)cc(CC)c1O	112 °C
